From US20160176867A1, “MODIFIED BET-PROTEIN-INHIBITING DIHYDROQUINOXALINONES AND DIHYDROPYRIDOPYRAZINONES” (BAYER PHARMA AKTIENGESELLSCHAFT, priority 2013, published 2016)
pIC50: −log10 of the molar value.

Legend:
[1] = target: T1, BRD4 bromo domain 2 [BRD4(2)] (Homo sapiens, UniProt O60885); assay: BRD4/acetylated peptide H4 binding assay (TR-FRET), BRD4 bromo domain 2; conditions: inhibition of BRD4(2)/Ac-H4 peptide interaction
T1 construct: N-terminally His6-tagged BRD4(2) (amino acids 357-445); made in house; host or cells: E. coli
Text: (§1) Protein-Protein Interaction Assay: BRD4/Acetylated Peptide H4 Binding Assay
To assess the BRD4(2) binding strength of the substances described in this application, the ability thereof to inhibit the interaction between BRD4(2) and acetylated histone H4 in a dose-dependent manner was quantified.
(§2) For this purpose, a time-resolved fluorescence resonance energy transfer (TR-FRET) assay was used, which measures the binding between N-terminally His6-tagged BRD4(2) (amino acids 357-445) and a synthetic acetylated histone H4 (Ac-H4) peptide with sequence SGRGK(Ac)GGK(Ac)GLGK(Ac)GGAK(Ac)RHRKVLRDNGSGSK-biotin. The recombinant BRD4(2) protein produced in-house according to Filippakopoulos et al., Nature, 2010, 468:1119-1123 and Cell, 2012, 149:214-231, was expressed in E. coli and purified by means of (Ni-NTA) affinity and (Sephadex G-75) size exclusion chromatography. The Ac-H4 peptide can be purchased, for example, from Biosyntan (Berlin, Germany).
(§3) In the assay, typically 11 different concentrations of each substance (0.1 nM, 0.33 nM, 1.1 nM, 3.8 nM, 13 nM, 44 nM, 0.15 μM, 0.51 μM, 1.7 μM, 5.9 μM and 20 μM) were analysed as duplicates on the same microtitre plate. For this purpose, 100-fold concentrated solutions in DMSO were prepared by serial dilutions (1:3.4) of a 2 mM stock solution into a clear, 384-well microtitre plate (Greiner Bio-One, Frickenhausen, Germany). From this, 50 nl were transferred into a black test plate (Greiner Bio-One, Frickenhausen, Germany). The test was started by the addition of 2 μl of a 2.5-fold concentrated BRD4(2) solution (final concentration typically 100 nM in the 5 μl of reaction volume) in aqueous assay buffer [50 mM HEPES pH 7.5, 50 mM sodium chloride (NaCl); 50 mM potassium fluoride (KF); 0.25 mM CHAPS and 0.05% serum albumin (BSA)] to the substances in the test plate. This was followed by a 10-minute incubation step at 22° C. for the pre-equilibration of putative complexes between BRD4(2) and the substances. Subsequently, 3 μl of a 1.67-fold concentrated solution (in assay buffer) consisting of Ac-H4 peptide (83.5 nM) and TR-FRET detection reagents [83.5 nM anti-6His-XL665 (Cisbio Bioassays, Codolet, France) and 12.52 nM streptavidin-Eu), (Perkin Elmer, #W1024)] in assay buffer were added.
(§4) The mixture was then incubated in the dark at 22° C. for one hour and then at 4° C. for at least 3 hours and for no longer than overnight. The formation of BRD4(2)/Ac-H4 complexes was determined by the measurement of the resonance energy transfer from the streptavidin-Eu chelate to the anti-6His-XL665 antibody present in the reaction. For this purpose, the fluorescence emission was measured at 620 nm and 665 nm after excitation at 330-350 nm in a TR-FRET measuring instrument, for example a Rubystar or Pherastar (both from BMG Lab Technologies, Offenburg, Germany) or a Viewlux (Perkin-Elmer). The ratio of the emissions at 665 nm and at 622 nm was taken as an indicator of the amount of BRD4(2)/Ac-H4 complexes formed.
(§5) The data (ratios) obtained were normalized, with 0% inhibition corresponding to the mean from the measurements for a set of controls (typically 32 data points) in which all the reagents were present. In these, in place of test substances, 50 nl of DMSO (100%) were used. Inhibition of 100% corresponded to the mean from the measurements for a set of controls (typically 32 data points) in which all the reagents except BRD4(2) were present. The IC50 was determined by regression analysis based on a 4-parameter equation (minimum, maximum, IC50, Hill; Y=max+(min−max)/(1+(X/IC50)Hill)).

[2] = target: T2, BRD4 bromo domain 1 [BRD4(1)] (Homo sapiens, UniProt O60885); assay: BRD4/acetylated peptide H4 binding assay (TR-FRET), BRD4 bromo domain 1; conditions: inhibition of BRD4(1)/Ac-H4 peptide interaction
T2 construct: N-terminally His6-tagged BRD4(1) (amino acids 67-152); made in house; host or cells: E. coli
Text: as §1
To assess the BRD4(1) binding strength of the substances described in this application, the ability thereof to inhibit the interaction between BRD4(1) and acetylated histone H4 in a dose-dependent manner was quantified.
as §2, with “BRD4(1)” for “BRD4(2)”, “67-152)” for “357-445)”, “GRGK(Ac)GGK(Ac)GLGK(Ac)GGAK(Ac)RHGSGSK-biotin.” for “SGRGK(Ac)GGK(Ac)GLGK(Ac)GGAK(Ac)RHRKVLRDNGSGSK-biotin.”
as §3, with “concentrated BRD4(1)” for “concentrated BRD4(2)”, “typically 10” for “typically 100”, “chloride (NaCl),” for “chloride (NaCl); 50 mM potassium fluoride (KF);”, “between BRD4(1)” for “between BRD4(2)”, “substances.” for “substances. Subsequently, 3 μl of a 1.67-fold concentrated solution (in assay buffer) consisting of Ac-H4 peptide (83.5 nM) and TR-FRET detection reagents [83.5 nM anti-6His-XL665 (Cisbio Bioassays, Codolet, France) and 12.52 nM streptavidin-Eu), (Perkin Elmer, #W1024)] in assay buffer were added.”
as §4, with “BRD4(1)/Ac-H4” for “BRD4(2)/Ac-H4”, “cryptate” for “chelate”
as §5, with “BRD4(1)” for “BRD4(2)”

| SMILES | pIC50 [1] | pIC50 [2] |
| --- | --- | --- |
| COc1ccc(Nc2ccc3c(n2)N(C2CCOCC2)[C@H](C)C(=O)N3C)cc1C(=O)N1CCN(C)CC1 [Example 83, (3R)-6-({4-methoxy-3-[(4-methylpiperazin-1-yl)carbonyl]phenyl}-amino)-1,3-dimethyl-4-(tetrahydro-2H-pyran-4-yl)-3,4-dihydropyrido[2,3-b]pyrazin-2(1H)-one] | 6.64 | 6.66 |
| CC1C(=O)N(C)c2ccc(N(C)c3cccc(S(=O)(=O)N(C)C)c3)cc2N1Cc1ccccc1 (centres unmarked) [Example 110, 3-[(4-benzyl-1,3-dimethyl-2-oxo-1,2,3,4-tetrahydroquinoxalin-6-yl)(methyl)amino]-N,N-dimethylbenzenesulphon-amide] | 6.49 | 5.89 |
| C[C@@H]1C(=O)N(C)c2ccc(Nc3cccc(S(=O)(=O)N4CCN(CC(F)(F)F)CC4)c3)nc2N1C1CCN(C(=O)OC(C)(C)C)CC1 [Example 66, tert-butyl 4-[(3R)-1,3-dimethyl-2-oxo-6-[(3-{[4-(2,2,2-trifIuoroethyl)-piperazin-1-yl]sulphonyl}-phenl)amino]-2,3-dihydropyrido[2,3-b]pyrazin-4(1H)-yl]piperidine-1-carboxylate] | 6.51 | 5.95 |
| COCCN1c2nc(Nc3cccc(C(=O)NC4CCN(C)CC4)c3)ccc2N(C)C(=O)[C@@H]1C (stereo in doubt) [Example 120, 3-{[(3S)-4-(2-methoxyethyl)-1,3-dimethyl-2-oxo-1,2,3,4-tetrahydropyrido[2,3-b]pyrazin-6-yl]amino}-N-(1-methylpiperidin-4-yl)benzamide] | 5.35 | 5.16 |
| C[C@@H]1C(=O)N(C)c2ccc(Nc3cccc(S(=O)(=O)N(C)C)c3)cc2N1C1CCN(C(=O)OC(C)(C)C)CC1 [Example 68, tert-butyl 4-[(2R)-7-{[3-(dimethylsulphamoyl)-phenyl]amino}-2,4-dimethyl-3-oxo-3,4-dihydroquinoxalin-1(2H)-yl]piperidine-1-carboxylate] | 7.12 | 6.36 |
| C[C@@H]1C(=O)N(C)c2ccc(Nc3cccc(C(=O)NC4CCC(NC5CCN(C)CC5)CC4)c3)nc2N1C1CCOCC1 (stereo partly drawn) [Example 80, 3-{[(3R)-1,3-dimethyl-2-oxo-4-(tetrahydro-2H-pyran-4-yl)-1,2,3,4-tetrahydropyrido[2,3-b]pyrazin-6-yl]amino}-N-{4-[(1-methylpiperidin-4-yl)amino]cyclohexyl} benzamide] | 6.61 | 6.71 |
| CC(C)N1c2nc(Nc3cccc(C(=O)NCCN(C)C)c3)ccc2N(C)C(=O)[C@H]1C [Example 97, N-[2-(dimethylamino)ethyl]-3-{[(3R)-4-isopropyl-1,3-dimethyl-2-oxo-1,2,3,4-tetrahydropyrido[2,3-b]pyrazin-6-yl]amino}benzamide] | 6.75 | 6.30 |
| C[C@@H]1C(=O)N(C)c2ccc(Nc3cccc(S(=O)(=O)N4CC5(CCC5)C4)c3)nc2N1C1CCN(C(=O)OC(C)(C)C)CC1 [Example 60, tert-butyl 4-[(3R)-6-{[3-(2-azaspiro[3.3]hept-2-ylsulphonyl)phenyl]-amino}-1,3-dimethyl-2-oxo-2,3-dihydropyrido[2,3-b]pyrazin-4(1H)-yl]piperidine-1-carboxylate] | 6.58 | 6.70 |
| C[C@@H]1C(=O)N(C)c2ccc(Nc3cccc(S(=O)(=O)N4CC(F)(F)C4)c3)nc2N1C1CCOCC1 [Example 31, (3R)-6-({3-[(3,3-Difluoroazetidin-1-yl)sulphonyl]phenyl}amino)-1,3-dimethyl-4-(tetrahydro-2H-pyran-4-yl)-3,4-dihydropyrido[2,3-b]pyrazin-2(1H)-one] |  | 7.40 |
| COc1ccc(C(=O)N[C@H]2CC[C@H](N3CCN(CC4CC4)CC3)CC2)cc1Nc1ccc2c(n1)N(C1CCOCC1)[C@H](C)C(=O)N2C [Example 87, N-{trans-4-[4-(cyclo-propylmethyl)piperazin-1-yl]cyclohexyl}-3-{[(3R)-1,3-dimethyl-2-oxo-4-(tetrahydro-2H-pyran-4-yl)-1,2,3,4-tetrahydropyrido[2,3-b]pyrazin-6-yl]amino}-4-methoxybenzamide] |  | 6.45 |
| CC(C)NS(=O)(=O)c1cccc(Nc2ccc3c(n2)N(C2CCOCC2)[C@H](C)C(=O)N3C)c1 [Example 42, 3-{[(3R)-1,3-dimethyl-2-oxo-4-(tetrahydro-2H-pyran-4-yl)-1,2,3,4-tetrahydropyrido[2,3-b]pyrazin-6-yl]amino}-N-isopropylbenzene-sulphonamide] |  | 7.44 |
| COc1ccc(C(=O)N[C@H]2CC[C@H](N3CCN(CC4CC4)CC3)CC2)cc1Nc1ccc2c(n1)N(C1CCOCC1)[C@H](C)C(=O)N2C [Example 18, N-{trans-4-[4-(Cyclopropylmethyl)piperazin-1-yl]cyclohexyl}-3-{[(3R)-1,3-dimethyl-2-oxo-4-(tetrahydro-2H-pyran-4-yl)-1,2,3,4-tetrahydropyrido[2,3-b]pyrazin-6-yl]amino}-4-methoxybenzamide] |  | 6.83 |
